≈ marks a conversion by molar mass, not a printed value. Non-standard residues stand in square brackets, D forms with d. Residues, ends and D or L forms follow the SMILES beside them. d1Nal = N[C@H](Cc1cccc2ccccc12)C(=O)O; dNle = CCCC[C@@H](N)C(=O)O
What was measured:
[1] = test system: Methicillin sensitive Staphylococcus pseudintermedius (26916); format: cell-based; conditions: 18 h
[2] = test system: Methicillin resistant Staphylococcus pseudintermedius, (C22963); format: cell-based; conditions: 18 h
[3] = test system: Staphylococcus aureus (ATCC 29213); format: cell-based; conditions: ATCC 29213, 18 h
[4] = test system: Acinetobacter baumannii, 27065; format: cell-based; conditions: 27065, 18 h
[5] = test system: Corynebacterium auriscanis, 31551; format: cell-based; conditions: 18 h
[6] = test system: Enterococcus faecalis, 27404; format: cell-based; conditions: 27404, 18 h
[7] = test system: Enterococcus faecium, 30951; format: cell-based; conditions: 30951, 18 h
[8] = test system: Klebsiella pneumoniae, 26233; format: cell-based; conditions: 26233, 18 h
Proteus mirabilis, 25178 = format: cell-based; conditions: 25178, 18 h
[9] = test system: Pseudomonas aeruginosa (ATCC 27853); format: cell-based; conditions: ATCC 27853, 18 h
Method in brief: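 Colonies grown 18 h at 37 °C on agar were adjusted to ~1 × 10^8 CFU/mL in MHB, then added to two-fold compound dilutions in MHB II at a final 5 × 10^5 CFU/mL. Plates incubated 18 h at 37 °C, ambient air. MIC read visually as lowest concentration preventing growth.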

E. coli, 30235 = format: cell-based, Escherichia coli; conditions: 30235, 18 h
Procedure: (§1) To explore the antimicrobial activity of the library of peptides and peptidomimetics, they were tested against Acinetobacter baumannii, Corynebacterium auriscanis, Escherichia coli, Enterococcus faecalis, Enterococcus faecium, Klebsiella pneumonia, Proteus mirabilis, and Pseudomonas aeruginosa. Bacteria grown on agar plates for 18 h at 37 °C were diluted to ~1 × 10^8 CFU/mL in Mueller–Hinton broth (MHB). Two-fold serial dilutions of peptides and peptidomimetics in MHB II were inoculated with bacteria to achieve a final concentration of 5 × 10^5 CFU/mL in polypropylene 96 U-well microtiter plates (Almeco, Esbjerg, Denmark), followed by incubation at 37 °C in ambient air for 18 h. The MIC values were determined as the lowest concentration showing no visible bacterial growth. Experiments were performed twice (in technical triplicates) on two different days.

[10] = test system: clinical MRSP strain C22963; assay: Time–kill kinetics; format: cell-based, Staphylococcus pseudintermedius; conditions: 1× MIC, MRSP C22963
Procedure: The time–kill experiments of D2 against the methicillin-resistant S. pseudintermedius strain C22963 were performed using an in-house protocol adopted and modified from Blondeau et al.: the bacterium was grown overnight on a blood agar plate. The next day, an inoculum was transferred to MHB and incubated for 2 h at 37 °C to reach exponential growth phase. […] Aliquots were removed at 1 h intervals up to 6h and spotted in triplicate on blood agar plates, and incubated overnight at 37 °C. Colonies were counted and CFU per mL was calculated.

[11] = test system: DNA synthesis in MRSP E104; assay: Macromolecule biosynthesis assay, DNA (3H-thymidine); format: cell-based, Staphylococcus pseudintermedius; conditions: 0.5× MIC, 20 min incubation, MRSP E104, 3H-thymidine; means of two experiments
Procedure: (§2) The effect on DNA and cell wall synthesis was investigated after 20 min of incubation of MRSP E104 with the precursors ^3H-thymidine and ^3H-glucosamine hydrochloride, respectively, as previously reported by Ling et al.. Following macromolecule precipitation, radioactivity was counted using scintillation fluid. Incorporation of ^3H- or ^14C-labeled thymidine has been used to investigate DNA replication and transcriptional activity during the cell cycle; ^3H-glucosamine hydrochloride has been used in a mode of action study for the antimicrobial peptide plectasin, which targets the cell wall precursor lipid II [44].
(§3) Macromolecules (DNA and cell wall) biosynthesis rates were measured using strain MRSP E104 following a protocol adapted from Ling et al.. Briefly, overnight culture of E104 was diluted 1:100 in MHB and freshly grown up to OD 0.2 at 600 nm. Grown cells were pelleted down by centrifugation and then resuspended in fresh MHB medium followed by incubation for 20 min on a dry heat-bath with D2 or analogues or nisin and radiolabeled precursor: (50 µCi) ^3H-Thymidine (PerkinElmer) and (5 µCi) ^3H-glucosamine hydrochloride per mL for DNA and cell wall, respectively. A positive control without antimicrobials was maintained that corresponds to 100% synthesis rate. After 20 min of incubation, samples were precipitated with equal volume of cold 30% trichloroactic acid (TCA Sigma, Søborg, Denmark) on ice. After 15 to 30 min of incubation on ice, precipitates were filtered on a membrane filter and subsequently washed twice with cold 15% TCA and twice with cold water using a vacuum manifold. Next, filters were air dried overnight and then moved to 10 mL scintillation vials. Finally, 3 mL scintillation fluid was added to each vial and ^3H count was taken in Beckman Coulter LS6500 liquid scintillation counter for 1 min. The radioactive counts of the control samples with no antimicrobial exposure were considered to have 100% precursor incorporation and macromolecule synthesis. The percentage rates of macromolecule synthesis in the antimicrobial-exposed samples were calculated compared to control. Each experiment was performed twice with a technical replicate, and the average rates of synthesis were plotted.

[12] = test system: cell wall synthesis in MRSP E104; assay: Macromolecule biosynthesis assay, cell wall (3H-glucosamine hydrochloride); format: cell-based, Staphylococcus pseudintermedius; conditions: 0.5× MIC, 20 min incubation, MRSP E104, 3H-glucosamine hydrochloride; means of two experiments
Procedure: as §2, §3

S. aureus = assay: MIC against canine clinical S. aureus strains (Table S2); format: cell-based, Staphylococcus aureus
Procedure: (§4) Similarly, in this study, to assess the degree of selectivity for S. pseudintermedius, D2 and D2D were tested against a collection of S. aureus and MSSP strains (Table S2).
as §1

S. pseudintermedius = assay: MIC against canine clinical S. pseudintermedius strains (Table S2); format: cell-based, Staphylococcus pseudintermedius
Procedure: as §4, §1

CCCC[C@@H](NC(=O)[C@@H](CCCCN)NC(=O)[C@@H](Cc1cccc2ccccc12)NC(=O)[C@@H](CCCCN)NC(=O)[C@@H](Cc1ccccc1)NC(=O)[C@@H](Cc1cccc2ccccc12)NC(=O)[C@@H](CCCCN)NC(=O)[C@H](N)CCCCN)C(N)=O [D2D] (H-[dK][dK][d1Nal][dF][dK][d1Nal][dK][dNle]-NH2)
MIC MSSP [1]: 1 to 4 mg/L | MIC MRSP [2]: 4 mg/L (≈ 3.38 µM) | MIC SA [3]: 4 mg/L (≈ 3.38 µM) | MIC Acinetobacter baumannii [4]: 16 mg/L (≈ 13.5 µM) | MIC Corynebacterium auriscanis [5]: 2 mg/L (≈ 1.69 µM) | MIC Enterococcus faecalis [6]: 8 mg/L (≈ 6.75 µM) | MIC Enterococcus faecium [7]: 4 mg/L (≈ 3.38 µM) | MIC Klebsiella pneumoniae [8]: 8 mg/L (≈ 6.75 µM) | MIC Proteus mirabilis (Proteus mirabilis, 25178): >64 mg/L | MIC PA [9]: 4 mg/L (≈ 3.38 µM) | MIC E. coli (E. coli, 30235): 4 mg/L (≈ 3.38 µM) | time to killing to bacterial levels below the detection threshold [10]: 30 min | inhibition of DNA biosynthesis rate [11]: 37% | effect on (inhibition of) cell wall synthesis [12]: 39% | MIC S. aureus 25054 (S. aureus; 25054, 8 G6, dog, wound, 2009): 2 mg/L (≈ 1.69 µM) | MIC S. aureus 27266 (S. aureus; 27266, 16 G9, dog, skin, 2010): 2 mg/L (≈ 1.69 µM) | MIC S. aureus 28264 (S. aureus; 28264, 20 B1, dog, wound, 2011): 4 mg/L (≈ 3.38 µM) | MIC S. aureus 30935 (S. aureus; 30935, 24 B9, dog, joint, 2013): 2 mg/L (≈ 1.69 µM) | MIC S. aureus 36968 (S. aureus; 36968, 61 A9, dog, wound, 2016): 4 mg/L (≈ 3.38 µM) | MIC S. aureus 37595 (S. aureus; 37595, 65 D2, dog, joint, 2016): 2 mg/L (≈ 1.69 µM) | MIC S. aureus 37708-2 (S. aureus; 37708-2, 66 C6, dog, skin, 2016): 4 mg/L (≈ 3.38 µM) | MIC S. aureus 38200 (S. aureus; 38200, 68 E9, dog, skin, 2016): 2 mg/L (≈ 1.69 µM) | MIC S. aureus 38565-1 (S. aureus; 38565-1, 70 A5, dog, skin, 2017): 2 mg/L (≈ 1.69 µM) | MIC S. aureus 38841 (S. aureus; 38841, 70 G5, dog, urine, 2017): 4 mg/L (≈ 3.38 µM) | MIC S. pseudintermedius 22963 (S. pseudintermedius; 22963, 3 B9, dog, ?, 2007): 2 mg/L (≈ 1.69 µM) | MIC S. pseudintermedius 26071 (S. pseudintermedius; 26071, 11 E5, dog, skin, 2009): 1 mg/L (≈ 0.844 µM) | MIC S. pseudintermedius 26092-2 (S. pseudintermedius; 26092-2, 11 E4, dog, skin, 2009): 1 mg/L (≈ 0.844 µM) | MIC S. pseudintermedius 26959 (S. pseudintermedius; 26959, 15 F8, dog, wound, 2010): 2 mg/L (≈ 1.69 µM) | MIC S. pseudintermedius 27364 (S. pseudintermedius; 27364, 17 A7, dog, wound, 2011): 2 mg/L (≈ 1.69 µM) | MIC S. pseudintermedius 27382 (S. pseudintermedius; 27382, 17 B8, dog, ear, 2011): 2 mg/L (≈ 1.69 µM) | MIC S. pseudintermedius 31524 (S. pseudintermedius; 31524, 54 C3, dog, ear, 2013): 2 mg/L (≈ 1.69 µM) | MIC S. pseudintermedius 33228 (S. pseudintermedius; 33228, 55 E2, dog, skin, 2014): 2 mg/L (≈ 1.69 µM) | MIC S. pseudintermedius 35890 (S. pseudintermedius; 35890, 59 B8, dog, ear, 2015): 2 mg/L (≈ 1.69 µM) | MIC S. pseudintermedius 37526-1 (S. pseudintermedius; 37526-1, 65 B4, dog, skin, 2016): 2 mg/L (≈ 1.69 µM) | MIC S. pseudintermedius 37535-1 (S. pseudintermedius; 37535-1, 65 B6, dog, skin, 2016): 2 mg/L (≈ 1.69 µM) | MIC S. pseudintermedius 38637 (S. pseudintermedius; 38637, 70 C3, dog, wound 2017): 2 mg/L (≈ 1.69 µM) | MIC S. pseudintermedius 38820 (S. pseudintermedius; 38820, 70 F9, dog, urine 2017): 2 mg/L (≈ 1.69 µM)

— PMC6470533, “Structure–Activity Study, Characterization, and Mechanism of Action of an Antimicrobial Peptoid D2 and Its D- and L-Peptide Analogues” (Molecules, 2019)
